What was measured:
human bone marrow HSCs = experiment: Proliferation of human bone marrow HSCs with soluble Wnt3a; format: cell-based; details: absence of any other growth factor
[1] = system: LEF-1/TCF reporter (TOP-dGFP); experiment: Lentiviral LEF-1/TCF reporter assay in HSCs in vitro; format: cell-based, mouse; details: HSCs stimulated with Wnt3a about 100 ng/ml
[2] = system: wild type mouse bone marrow HSCs; experiment: In vitro HSC proliferation assay with purified Wnt3A; format: cell-based
Protocol: FIGS. 5A-5D. Wild Type HSCs proliferate to purified Wnt3A. Purified wild type mouse bone marrow HSCs were sorted by FACS and plated at 5 or 10 cells/well into 60 well Terasaki plates. Cells were incubated in X-vivo 15 (Bio Whittaker), 10% FBS, 5×10^−5M 2-Mercaptoethanol, and 1×10^−4M random methylated beta-cyclodextrin (CTD, Inc.) in the presence of either purified Wnt3A (at approx. 100 ng/ml) plus SLF (10 ng/ml) or SLF (10 ng/ml) alone, as a control. (SLF dose required ranged from 7.5 ng/ml-100 ng/ml depending on mouse strain used). Cell growth was monitored over a period of 7-9 days in culture, and is shown as total cell response (A) and the average frequency of responding wells (B) representative of over 9 independent experiments. To determine phenotypic characteristics, cells were plated in bulk (3500 cells) in 96 well plates and incubated in the presence of purified or unpurified Wnt3A.
Purified Wnt protein can regulate HSC self-renewal in the same manner as β-catenin in BCL-2 transgenic HSCs. To ensure that this response was not dependent on BCL-2 over-expression, we specifically tested whether wild type HSCs respond in a similar manner to purified Wnt3A as well. Over a period of days, HSCs plated at 1-20 cells per well, responded extremely robustly to Wnt3A in contrast to control conditions (e.g. 184 cells versus 0 when plated at 5 cells/well) (FIG. 5). The average frequency of cells that responded to Wnt3A over 3 independent experiments was 17-fold more than the proliferation to control conditions (limiting dose of SLF) when plated at 10 cells/well. […] Furthermore, the phenotypic characteristics of HSCs treated with purified or unpurified Wnt3A were dramatically different. […] Furthermore, a significant fraction of the lineage negative population expressed c-Kit and Sca-1 consistent with a HSC phenotype (D).
In vitro HSC proliferation assays. Freshly purified or virally transduced HSCs were plated at 1 to 20 cells per well in Terasaki plates. Cells were sorted into wells containing serum-free medium (X-vivo15, BioWhittaker) supplemented with 5×10^−5 M 2-mercaptoethanol and the indicated growth factors. Proliferation was monitored by counting the number of cells in each well at defined intervals. For longer-term cultures, transduced HSCs were plated in 96-well plates in the absence or presence of SLF (1 ng ml^−1), and the number of cells generated was monitored by cell counting at defined intervals. For inhibition of growth by CRD or axin, cells were cultured in the presence of mitogenic factors (SLF (30 ng ml^−1), Flt-3L (30 ng ml^−1), interleukin-6 (10 ng ml^−1)).

HSCs = experiment: Transplantation of Wnt3A-treated HSCs into lethally irradiated recipient mice; format: in vivo, mouse
Protocol: To test whether the cells treated with purified Wnt3A underwent self-renewal functionally, purified HSCs were plated as 1 cell or as 10 cells, treated with Wnt3A and each well containing proliferating cells transplanted individually into lethally irradiated recipient mice along with 300,000 Sca-1^− Bone Marrow cells (A). […] Since the empirically observed frequency of reconstitution of resting HSCs is ˜10% and of cycling HSCs ˜2%, the observed frequency of reconstitution of 100% for 1 plated cells is consistent with Wnt3A inducing a 10- to 50-fold increase in HSC activity, a range similar to that seen with BCL-2 transgenic HSCs.
In vivo analysis of HSC function.

Wnt3a
proliferation of highly purified human bone marrow HSCs (human bone marrow HSCs): induces proliferation | TOP-dGFP reporter activity (GFP expression) [1]: significant reporter activity | average frequency of cells that responded relative to control conditions ([2]; 10 cells/well, 3 independent experiments, control limiting dose of SLF): 17 fold | lineage marker phenotype of treated HSCs ([2]; after 7 days in culture): negative for lineage markers | total cell response ([2]; plated at 5 cells/well, control 0): 184 cells | numbers of progeny generated by singly plated HSCs compared with control conditions ([2]; singly plated HSCs, presence of Wnt3a): six-fold | frequency of reconstitution (HSCs; 1 plated cell treated with Wnt3A): 100% | reconstitution efficiency (HSCs; wells plated with 10 cells or 5 cells): 100%

Reference: US7803783B2, “Use of WNT inhibitors to augment therapeutic index of chemotherapy” (The Board of Trustees of the Leland Stanford Junior …, priority 2002, dated 2010)
